Results from PubChem BioAssay AID1963831 (Molecular Pharmacology Branch, DTP, NCI, 2024).
pIC50: −log10 of the molar value.

Tested on: 889142-216-R-J1-PDC complex spheroid viability
Assay: Anticancer human tumor 889142-216-R-J1-PDC patient-derived bladder carcinoma cell line growth inhibition [POLQ]
Conditions: for pIC50: curve of first compound; for viability, T/C: stronger effect = lower value
Summary of the method: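 Three-cell-type spheroids modelling solid tumor plus stroma served as the readout system; POL inhibitors were tested individually and in combination, concentration ranges set by clinical Cmax where known.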

[1] = second compound 0.0316 µM, first compound 0.0316 µM
[2] = second compound 0.0316 µM, first compound 0.1 µM
[3] = second compound 0.0316 µM, first compound 0.316 µM
[4] = second compound 0.0316 µM, first compound 1 µM
[5] = second compound 0.1 µM, first compound 0.0316 µM
[6] = second compound 0.1 µM, first compound 0.1 µM
[7] = second compound 0.1 µM, first compound 0.316 µM
[8] = second compound 0.1 µM, first compound 1 µM
[9] = second compound 0.316 µM, first compound 0.0316 µM
[10] = second compound 0.316 µM, first compound 0.1 µM
[11] = second compound 0.316 µM, first compound 0.316 µM
[12] = second compound 0.316 µM, first compound 1 µM
[13] = second compound 1 µM, first compound 0.0316 µM
[14] = second compound 1 µM, first compound 0.1 µM
[15] = second compound 1 µM, first compound 0.316 µM
[16] = second compound 1 µM, first compound 1 µM
[17] = second compound 3.16 µM, first compound 0.0316 µM
[18] = second compound 3.16 µM, first compound 0.1 µM
[19] = second compound 3.16 µM, first compound 0.316 µM
[20] = second compound 3.16 µM, first compound 1 µM
[21] = second compound 10 µM, first compound 0.0316 µM
[22] = second compound 10 µM, first compound 0.1 µM
[23] = second compound 10 µM, first compound 0.316 µM
[24] = second compound 10 µM, first compound 1 µM
[25] = second compound 0.0316 µM, first compound 3.16 µM
[26] = second compound 0.0316 µM, first compound 10 µM
[27] = second compound 0.1 µM, first compound 3.16 µM
[28] = second compound 0.1 µM, first compound 10 µM
[29] = second compound 0.316 µM, first compound 3.16 µM
[30] = second compound 0.316 µM, first compound 10 µM
[31] = second compound 1 µM, first compound 3.16 µM
[32] = second compound 1 µM, first compound 10 µM
[33] = second compound 3.16 µM, first compound 3.16 µM
[34] = second compound 3.16 µM, first compound 10 µM
[35] = second compound 10 µM, first compound 3.16 µM
[36] = second compound 10 µM, first compound 10 µM
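Further: spheroids exposed to compounds for seven days.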
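Wherever viability, T/C is given: 100% = DMSO vehicle control viability.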

SMILES: COc1cccc(OCCCN)c1-c1cc(Nc2cnc(C#N)cn2)n[nH]1 + Nc1ccc(C#CCN(C(=O)Cc2ncc(C(F)(F)F)cc2C(F)(F)F)c2ccc(F)cc2)nn1
- pIC50 (second compound 0.0316 µM): 6.87
- pIC50 (second compound 0.1 µM): 6.79
- pIC50 (second compound 0.316 µM): 7.03
- pIC50 (second compound 1 µM): 7.48
- pIC50 (second compound 3.16 µM): 7.53
- pIC50 (second compound 10 µM): < 6.00
- viability, T/C (second compound 0.0316 µM, first compound 0.00316 µM): 100%
- viability, T/C (second compound 0.0316 µM, first compound 0.01 µM): 77.4%
- viability, T/C [1]: 60.2%
- viability, T/C [2]: 45.8%
- viability, T/C [3]: 51%
- viability, T/C [4]: 49%
- viability, T/C (second compound 0.1 µM, first compound 0.00316 µM): 98.5%
- viability, T/C (second compound 0.1 µM, first compound 0.01 µM): 75.1%
- viability, T/C [5]: 57.9%
- viability, T/C [6]: 54.6%
- viability, T/C [7]: 45.8%
- viability, T/C [8]: 46.2%
- viability, T/C (second compound 0.316 µM, first compound 0.00316 µM): 99.6%
- viability, T/C (second compound 0.316 µM, first compound 0.01 µM): 71.8%
- viability, T/C [9]: 49.9%
- viability, T/C [10]: 49.9%
- viability, T/C [11]: 56.8%
- viability, T/C [12]: 43.6%
- viability, T/C (second compound 1 µM, first compound 0.00316 µM): 79.1%
- viability, T/C (second compound 1 µM, first compound 0.01 µM): 68%
- viability, T/C [13]: 50%
- viability, T/C [14]: 44.5%
- viability, T/C [15]: 49%
- viability, T/C [16]: 39.5%
- viability, T/C (second compound 3.16 µM, first compound 0.00316 µM): 76.8%
- viability, T/C (second compound 3.16 µM, first compound 0.01 µM): 76.7%
- viability, T/C [17]: 47.7%
- viability, T/C [18]: 48.9%
- viability, T/C [19]: 54%
- viability, T/C [20]: 41.9%
- viability, T/C (second compound 10 µM, first compound 0.00316 µM): 85.8%
- viability, T/C (second compound 10 µM, first compound 0.01 µM): 70.6%
- viability, T/C [21]: 55.8%
- viability, T/C [22]: 51.8%
- viability, T/C [23]: 61%
- viability, T/C [24]: 45.6%

SMILES: O=c1[nH]cc(F)c(=O)[nH]1 + COC1C(OC(N)=O)C(O)C(Oc2ccc3c(O)c(NC(=O)c4ccc(O)c(CC=C(C)C)c4)c(=O)oc3c2C)OC1(C)C
- pIC50 (second compound 0.0316 µM): < 5.00
- pIC50 (second compound 0.1 µM): < 5.00
- pIC50 (second compound 0.316 µM): < 5.00
- pIC50 (second compound 1 µM): < 5.00
- pIC50 (second compound 3.16 µM): < 5.00
- pIC50 (second compound 10 µM): < 5.00
- viability, T/C [1]: 98.8%
- viability, T/C [2]: 99.2%
- viability, T/C [3]: 94.5%
- viability, T/C [4]: 75%
- viability, T/C [25]: 74%
- viability, T/C [26]: 70.6%
- viability, T/C [5]: 121%
- viability, T/C [6]: 107%
- viability, T/C [7]: 75.3%
- viability, T/C [8]: 67.2%
- viability, T/C [27]: 75.2%
- viability, T/C [28]: 77.5%
- viability, T/C [9]: 112%
- viability, T/C [10]: 113%
- viability, T/C [11]: 95.1%
- viability, T/C [12]: 83.6%
- viability, T/C [29]: 85.8%
- viability, T/C [30]: 72.6%
- viability, T/C [13]: 106%
- viability, T/C [14]: 123%
- viability, T/C [15]: 92.5%
- viability, T/C [16]: 78.8%
- viability, T/C [31]: 77.6%
- viability, T/C [32]: 67.8%
- viability, T/C [17]: 112%
- viability, T/C [18]: 90.2%
- viability, T/C [19]: 73.3%
- viability, T/C [20]: 79.3%
- viability, T/C [33]: 78.9%
- viability, T/C [34]: 78%
- viability, T/C [21]: 90.5%
- viability, T/C [22]: 103%
- viability, T/C [23]: 87.8%
- viability, T/C [24]: 89.7%
- viability, T/C [35]: 70.5%
- viability, T/C [36]: 69.8%

SMILES: CC(C)n1c(=O)n(C)c2cnc3cc(F)c(-c4ccc(OCCCN5CCCCC5)nc4)cc3c21 + COC1C(OC(N)=O)C(O)C(Oc2ccc3c(O)c(NC(=O)c4ccc(O)c(CC=C(C)C)c4)c(=O)oc3c2C)OC1(C)C
- pIC50 (second compound 0.0316 µM): < 5.00
- pIC50 (second compound 0.1 µM): 5.22
- pIC50 (second compound 0.316 µM): < 5.00
- pIC50 (second compound 1 µM): < 5.00
- pIC50 (second compound 3.16 µM): 5.06
- pIC50 (second compound 10 µM): < 5.00
- viability, T/C [1]: 91.2%
- viability, T/C [2]: 86.3%
- viability, T/C [3]: 78.3%
- viability, T/C [4]: 86.5%
- viability, T/C [25]: 54.6%
- viability, T/C [26]: 52.8%
- viability, T/C [5]: 88.6%
- viability, T/C [6]: 105%
- viability, T/C [7]: 81.7%
- viability, T/C [8]: 85.8%
- viability, T/C [27]: 60.4%
- viability, T/C [28]: 41.5%
- viability, T/C [9]: 105%
- viability, T/C [10]: 71.1%
- viability, T/C [11]: 85.8%
- viability, T/C [12]: 76.8%
- viability, T/C [29]: 58.9%
- viability, T/C [30]: 56.8%
- viability, T/C [13]: 113%
- viability, T/C [14]: 86.2%
- viability, T/C [15]: 80.4%
- viability, T/C [16]: 71.2%
- viability, T/C [31]: 67.1%
- viability, T/C [32]: 52.2%
- viability, T/C [17]: 92.4%
- viability, T/C [18]: 106%
- viability, T/C [19]: 88.7%
- viability, T/C [20]: 71.4%
- viability, T/C [33]: 61.6%
- viability, T/C [34]: 46.9%
- viability, T/C [21]: 94.4%
- viability, T/C [22]: 92.8%
- viability, T/C [23]: 81.3%
- viability, T/C [24]: 88%
- viability, T/C [35]: 65.9%
- viability, T/C [36]: 53.7%
